# Results published in US6376488B1, “Benzoxazine α-1 adrenergic compounds” (Abbott Laboratories, priority 2000, dated 2002).
# Structures can show the parent of a compound that is named as a salt.
# Biological target: T1, α1a (bovine) adrenoreceptor (Bos taurus, UniProt P18130)
# T1 sequence (P18130 1-466): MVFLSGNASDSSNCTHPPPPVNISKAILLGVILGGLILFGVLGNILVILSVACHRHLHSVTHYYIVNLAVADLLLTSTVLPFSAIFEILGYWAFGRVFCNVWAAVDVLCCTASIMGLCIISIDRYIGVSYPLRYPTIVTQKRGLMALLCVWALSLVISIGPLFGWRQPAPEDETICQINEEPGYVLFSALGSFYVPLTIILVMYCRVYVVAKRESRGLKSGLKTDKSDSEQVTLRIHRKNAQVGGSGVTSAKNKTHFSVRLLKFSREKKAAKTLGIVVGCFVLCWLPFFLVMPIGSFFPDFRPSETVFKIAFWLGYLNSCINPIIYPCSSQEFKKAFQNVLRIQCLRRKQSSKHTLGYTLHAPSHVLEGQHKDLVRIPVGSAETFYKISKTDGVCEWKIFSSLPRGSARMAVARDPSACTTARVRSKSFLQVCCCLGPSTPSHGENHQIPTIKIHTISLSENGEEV
# Assay: [3H]-prazosin radioligand binding, cloned α1a (bovine) adrenoreceptor in LTK cells
# Settings: cloned receptor in LTK cell membranes, [3H]prazosin 0.2 nM
# Experimental: Representative compounds of the invention were evaluated for α adrenoreceptor binding affinity in vitro using [^3H]-prazosin as the radioligand and following four cloned α1, adrenoreceptors expressed in LTK cells: α1a (rat), α1a (bovine), α1b : (hampster), and α1d (rat).
# The cDNA clones encoding the α1, adrenoreceptors were obtained from TULCO (Triangle Universities Licensing Consortium, Research Triangle Park, N.C.) and inserted into the eukaryotic expression vector SnaB30. In this vector, expression of the adrenoreceptor gene is under the transcriptional control of an SV40 early promoter. Positive drug selection is provided by a neomycin-resistance gene. Mouse fibroblast cells (LTK) were transfected with the α1 expression plasmids and grown in Dulbecco's modified Eagle's medium (DMEM) containing 10% fetal calf serum and 30 μM G418. Stable G418-resistant parental lines were generated with successful expression of adrenoreceptor protein monitored using radioligand binding techniques. Stable single cell clones derived from the parental lines were screened in adrenoreceptor binding assays to identify clones having high adrenoreceptor density. Roller bottle cultures of the cloned lines were used to provide cell membranes for subsequent adrenoreceptor binding characterization studies. A cell line containing the SnaB30 vector expressing the human erythropoietin gene served as a negative control.
# For adrenoreceptor binding assays, large scale membrane preparations were utilized in which 6 million cells were seeded into small (450 cm^2) Coming tissue culture roller bottles. DMEM (200 mL) containing 10% fetal calf serum and 300 μM G418 were added to each roller bottle. A 95% air/5% CO2 gas mixture (sterile) was injected into each roller bottle prior to sealing, and the bottles were then incubated at 37° C. on a roller rack for 5 days. Cells were refed with fresh medium after 3 days in culture.
# On the fifth day of culture, growth medium was removed from cells grown in roller bottles, and the cells were washed twice with PBS (Sigma, 120 mM NaCl, 2.7 mM KCl, 10 mM Na2HPO4-NaH2PO4, pH=7.4). Cells were detached from the roller bottles by incubating for 15 minutes at 37° C. in a Tris-EDTA solution (10 mM Tris, 100 mM NaCl, 1 mM EDTA, pH=7.4). The cell suspension from each roller bottle was decanted into tared centrifuge tubes and kept on ice. An aliquot of each cell suspension was generally taken for cell counting. Cells were centrifuged at 3000×G for 5 minutes at 2-4° C., washed with PBS and recentrifuged. The supernatant was decanted, and the pellet was weighed to determine the wet weight of cells. Cells were washed a final time in 40 vol 5 mM Tris-HCl, 5 mM EDTA, pH=7.7 and centrifuged at 40,000×G for 10 minutes (“vol” indicates volume/weight, e.g., a “vol” of 40 would indicate that the one gram of cells were washed with 40 mls of buffer). Cells were homogenized in of 50 mM Tris-HCl, 5 mM EDTA (pH=7.4) (10 mL) and diluted to 40 mL/tube. Homogenates were centrifuged at 40,000×G for 10 minutes. The supernatant was decanted and the pellets rehomogenized in 50 mM Tris-HCl (pH=7.4) and centrifuged as before. The supernatant was decanted and the homogenate was resuspended in 6.25 volumes (per gram wet weight) of 50 mM Tris-HCl and aliquots of the pooled homogenates frozen in liquid N2 and,stored at −70° C. until the time of assay.
# Receptor binding assays for α1 adrenoreceptors were performed essentially as described by Greengrass and Bremner (Eur. J. Pharmacol. 55: 323-326 (1979)). […] Following equilibration, bound radioligand was separated from free on GF/B filters (presoaked in 0.5% polyethyleneimine) using ither a Brandel or Packard cell harvester. Radioactivity was determined by standard liquid scintillation techniques. Data were analyzed as previously described (Hancock, A. A., Kyncl, J. J., Martin, Y. C. and DeBemardis, J. F., J. Receptor Res. 8: 23-46 (1988)). The in Table 1.
row,Compound,Ki [nM]
1,"COc1cccc2c1N1CCN(CCCn3c(=O)[nH]c4c(sc5cccnc54)c3=O)CC1CO2.Cl.Cl.Cl (single isomer, unassigned; (-)) [Example 9, (−) 3-[3-(10-methoxy-1,2,4a,5-tetrahydropyrazino[2,1-c][1,4]benzoxazin-3(4H)-yl)propyl]pyrido[2′,3′:4,5]thieno[3,2-d]pyrimidine-2,4(1H, 3H)-dione trihydrochloride]",0.249
2,"COc1cccc2c1N1CCN(CCn3c(=O)[nH]c4c(sc5cccnc54)c3=O)CC1CO2.Cl.Cl.Cl (single isomer, unassigned; (+)) [Example 16, (+) 3-[2-(10-methoxy-1,2,4a,5-tetrahydropyrazino[2,1-c][1,4]benzoxazin-3(4H)-yl)ethyl]pyrido[2′,3′:4,5]thieno[3,2-d]pyrimidine-2,4(1H,3H)-dione trihydrochloride]",0.334
3,"COc1cccc2c1N1CCN(CCCCn3c(=O)[nH]c4c(sc5cccnc54)c3=O)CC1CO2 (single isomer, unassigned; (+)) [Example 14, (+) 3-[4-(10-methoxy-1,2,4a,5-tetrahydropyrazino[2,1-c][1,4]benzoxazin-3(4H)-yl)butyl]pyido [2′,3′:4,5]thieno[3,2-d]pyrimidine-2,4(1H,3H)-dione trihydrochloride]",0.243
4,"COc1cccc2c1N1CCN(CCCCn3c(=O)[nH]c4c(sc5ncc(Cl)nc54)c3=O)CC1CO2.Cl.Cl (single isomer, unassigned; (-)) [Example 12, (−) 3-[4-(10-methoxy-1,2,4a,5-tetrahydropyrazino[2,1-c][1,4]benzoxazin-3(4H)-yl)butyl]-8-chloropyrazino[2′,3′:4,5]thieno[3,2-d]pyrimidine-2,4(1H,3H)-dione dihydrochloride]",0.41
5,"COc1cccc2c1N1CCN(CCCCn3c(=O)[nH]c4c(sc5ncccc54)c3=O)CC1CO2.Cl.Cl.Cl (single isomer, unassigned; (+)) [Example 15, (+) 3-[4-(10-methoxy-1,2,4a,5-tetrahydropyrazino[2,1-c][1,4]benzoxazin-3(4H)-yl)butyl]pyrido[3′,2′:4,5]thieno[3,2-d]pyrimidine-2,4(1H,3H)-dione trihydrochloride]",0.289
6,"COc1cccc2c1N1CCN(CCn3c(=O)[nH]c4c(sc5ncc(Cl)nc54)c3=O)CC1CO2.Cl.Cl (single isomer, unassigned; (-)) [Example 13, (−) 3-[2-(10-methoxy-1,2,4a,5-tetrahydropyrazino[2,1-c][1,4]benzoxazin-3(4H)-yl)ethyl]-8-chloropyrazino[2′,3′:4,5]thieno[3,2-d]pyrimidine-2,4(1H,3H)-dione dihydrochloride]",0.685
7,"COc1cccc2c1N1CCN(CCn3c(=O)[nH]c4c(sc5cccnc54)c3=O)CC1CO2.Cl.Cl (single isomer, unassigned; (-)) [Example 7, (−) 3-[2-(10methoxy-1,2,4a,5-tetrahydropyrazino[2,1-c][1,4]benzoxazin-3(4H)-yl)ethyl]pyrido[2′,3′:4,5]thieno[3,2-d]pyrimidine-2,4(1H,3H)-dione dihydrochloride]",0.251
8,"COc1cccc2c1N1CCN(CCCCn3c(=O)[nH]c4c(sc5ncccc54)c3=O)CC1CO2 (single isomer, unassigned; (-)) [Example 11, (−) 3-[4-(10-methoxy-1,2,4a,5-tetrahydropyrazino[2,1-c][1,4]benzoxazin-3(4H)-yl)butyl]pyrido[3′,2′:4.5]thieno[3,2-d]pyrimidine-2,4(1H,3H)-dione trihydrochloride]",0.387
9,"Cl.Cl.O=c1[nH]c2c(sc3ncccc32)c(=O)n1CCCCN1CCN2c3ccccc3OCC2C1 (single isomer, unassigned; (-)) [Example 6, (−) 3-[4-(1,2,4a,5-tetrahydropyrazino[2,1-c][1,4]benzoxazin-3(4H)-yl)butyl]pyrido[3′, 2′:4,5]thieno[3,2-d]pyrimidine-2,4(1H,3H)-dione dihydrochloride]",5.51
10,"(−) 3-[3-(10-methoxy-1,2,4a,5-tetrahydropyrazino[2,1-c][1,4]benzoxazin-3(4H)-yl)butyl]pyrido[2′,3′:4,5]thieno[3,2-d]pyrimidine-2,4(1H,3H)-dione trihydrochloride [Example 10]",0.243
11,"COc1cccc2c1N1CCN(CCn3c(=O)[nH]c4c(sc5ncc(Cl)nc54)c3=O)CC1CO2.Cl.Cl (single isomer, unassigned; (+)) [Example 8, (+) 3-[2-(10-methoxy-1,2,4a,5-tetrahydropyrazino[2,1-c][1,4]benzoxazin-3(4H)-yl)ethyl]-8-chloropyrazino[2′,3′:4,5]thieno[3,2-d]pyrimidine-2,4(1H,3H)-dione dihydrochloride]",0.463
12,"Cl.Cl.O=c1[nH]c2c(sc3ncccc32)c(=O)n1CCCCN1CCN2c3ccccc3OCC2C1 (single isomer, unassigned; (+)) [Example 5, (+) 3-[4-(1,2,4a,5-tetrahydropyrazino[2,1-c][1,4]benzoxazin-3(4H)-yl)butyl]pyrido[3′, 2′:4,5]thieno[3,2-d]pyrimidine-2,4(1H,3H)-dione dihydrochloride]",2.72
13,"Cl.Cl.O=c1[nH]c2c(sc3cccnc32)c(=O)n1CCCCN1CCN2c3ccccc3OCC2C1 (single isomer, unassigned; (+)) [Example 3, (+) 3-[4-(1,2,4a,5-tetrahydropyrazino[2,1-c][1,4]benzoxazin-3(4H)-yl)butyl]pyrido[2′, 3′:4,5]thieno[3,2-d]pyrimidine-2,4(1H,3H)-dione dihydrochloride]",2.09
14,"O=c1[nH]c2c(sc3cccnc32)c(=O)n1CCCCN1CCN2c3ccccc3OCC2C1 (single isomer, unassigned; (-)) [Example 4, (−) 3-[4-(1.2,4a,5-tetrahydropyrazino[2,1-c][1,4benzoxazin-3(4H)-yl)butyl]pyrido[2′,3′:4,5]thieno[3,2-d]pyrimidine-2,4(1H,3H)-dione dihydrochloride]",3.6
15,"O=c1[nH]c2c(sc3cccnc32)c(=O)n1CCCN1CCN2c3ccccc3OCC2C1 (single isomer, unassigned; (-)) [Example 2, (−) 3-[3-(1,2,4a,5-tetrahydropyrazino[2,1-c][1,4]benzoxazin-3(4H)-yl)propyl]pyrido[2′,3′:4,5]thieno[3,2-d]pyrimidine-2,4(1H,3H)-dione dihydrochloride]",13.8
16,"Cl.Cl.O=c1[nH]c2c(sc3cccnc32)c(=O)n1CCCN1CCN2c3ccccc3OCC2C1 (single isomer, unassigned; (+)) [Example 1, (+) 3-[3-(1,2,4a,5-tetrahydropyrazino[2,1-c][1,4]benzoxazin-3(4H)-yl)propyl]pyrido[2′,3′:4,5]thieno[3,2-d]pyrimidine-2,4(1H,3H)-dione dihydrochloride]",1.18
